Assay results published in patent US10774071B2, “PD-1/PD-L1 inhibitors” (Gilead Sciences, Inc., priority 2018, dated 2020).

Columns and labels:
PD-1/PD-L1 = PD-1/PD-L1 (Homo sapiens (Human), UniProt Q9NZQ7); test: PD-1/PD-L1 biochemical protein-protein interaction assay (ALPHA); format: binding; conditions: 0.3 nM His tagged PD-L1, 2.5 nM biotinylated Fc-PD-1, Table 3B, read-out: IC50 PD-L1-PD1
PD-L1 = PD-L1 (Homo sapiens (Human), UniProt Q9NZQ7); test: PD-L1/PD-L1 dimerization biochemical protein-protein interaction assay (ALPHA); format: binding; conditions: 0.5 nM His tagged PD-L1 and 0.5 nM FLAG tagged PD-L1, Table 4B, read-out: AC50 PDL1 Dimer 1 nM
Sequence of PD-L1 (Q9NZQ7 19-238): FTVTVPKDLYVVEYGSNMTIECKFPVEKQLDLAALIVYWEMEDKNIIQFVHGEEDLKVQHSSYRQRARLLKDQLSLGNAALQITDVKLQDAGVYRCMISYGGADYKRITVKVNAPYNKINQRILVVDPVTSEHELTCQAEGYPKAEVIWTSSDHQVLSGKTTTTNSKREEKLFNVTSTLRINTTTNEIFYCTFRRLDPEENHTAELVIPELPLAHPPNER
Sequence of PD-L1 (Q9NZQ7 19-238): as above

Sequence of PD-1/PD-L1 (Q9NZQ7 19-238): as above

Row | Structure (SMILES) | IC50 (PD-1/PD-L1) | AC50 (PD-L1)
1 | CCC1C(C(=O)O)CCN1Cc1cc(Cl)c(O[C@H]2CCc3c(-c4cccc(-c5ccc(CNC[C@@H]6CCC(=O)N6)c(OC)n5)c4Cl)cccc32)nc1OC (stereo partly drawn) [B-186] | 0.064 nM | 19.7 nM
2 | COc1cc(-c2cccc(-c3cccc4c3CC[C@@H]4Oc3nc(OC)c(CN(C)CC(=O)O)cc3C(F)(F)F)c2Cl)cc(F)c1CNC[C@@H]1CCC(=O)N1 [B-187] | 0.064 nM | 2.86 nM
3 | COc1cc(-c2cccc(-c3cccc4c3CC[C@@H]4Oc3nc(OC)c(CNC(C)(C)CC(=O)O)cc3C(F)(F)F)c2Cl)cc(F)c1CNC[C@@H]1CCC(=O)N1 [B-192] | 0.064 nM | 6.8 nM
4 | COc1cc(-c2cccc(-c3cccc4c3CC[C@@H]4Oc3nc(OC)c(CN4CC[C@@H](C(=O)O)C4)cc3C(F)(F)F)c2Cl)cc(F)c1CNC[C@@H]1CCC(=O)N1 [B-195] | 0.064 nM | 5.79 nM
5 | COc1nc(-c2cccc(-c3cccc4c3CC[C@@H]4Oc3nc(OC)c(CNC(C)(C)CC(=O)O)cc3C(F)(F)F)c2Cl)ccc1CNC[C@@H]1CCC(=O)N1 [B-196] | 0.064 nM | 6.31 nM
6 | COc1nc(-c2cccc(-c3cccc4c3CC[C@@H]4Oc3nc(OC)c(CNC(C)(C)CC(=O)O)cc3Cl)c2Cl)ccc1CNC[C@@H]1CCC(=O)N1 [B-197] | 0.064 nM | 12.5 nM
7 | COc1nc(-c2cccc(-c3cccc4c3CC[C@@H]4Oc3nc(OC)c(CN4C[C@@H]5C[C@]5(C(=O)O)C4)cc3C(F)(F)F)c2Cl)ccc1CNC[C@@H]1CCC(=O)N1 [B-199] | 0.064 nM | 17.5 nM
8 | COc1nc(-c2cccc(-c3cccc4c3CC[C@@H]4Oc3nc(OC4CC4)c(CNC4(C(=O)O)CC4)cc3Cl)c2Cl)ccc1CNC[C@@H]1CCC(=O)N1 [B-201] | 0.064 nM | 24.4 nM
9 | COc1nc(-c2cccc(-c3cccc4c3CC[C@@H]4Oc3nc(OC)c(CN4CC[C@@](C)(C(=O)O)C4)cc3C(F)(F)F)c2Cl)ccc1CNC[C@@H]1CC(O)C(=O)N1 (stereo partly drawn) [B-202] | 0.064 nM | 3.43 nM
10 | COc1nc(-c2cccc(-c3cccc4c3CC[C@@H]4Oc3nc(OC)c(CN4CC5(C(=O)O)CCC4CC5)cc3C(F)(F)F)c2Cl)ccc1CNC[C@@H]1CC(O)C(=O)N1 (stereo partly drawn) [B-203] | 0.064 nM | 5.21 nM
11 | COc1nc(-c2cccc(-c3cccc4c3CC[C@@H]4Oc3nc(OC)c(CN4CC[C@@](C)(C(=O)O)C4)cc3C(F)(F)F)c2Cl)ccc1CNC[C@H]1C[C@](C)(O)C1 [B-208] | 0.064 nM | 23.5 nM
12 | COc1nc(-c2cccc(-c3cccc4c3CC[C@@H]4Oc3nc(OC)c(CN(C)CC(=O)O)cc3C(F)(F)F)c2Cl)ccc1CN[C@H]1C[C@](C)(O)C1 [B-210] | 0.064 nM | 23.7 nM
13 | COc1nc(-c2cccc(-c3cccc4c3CC[C@@H]4Oc3nc(OC)c(CN[C@H](C(=O)O)C(C)C)cc3C(F)(F)F)c2Cl)ccc1CN[C@H]1C[C@](C)(O)C1 [B-212] | 0.064 nM | 17.5 nM
14 | COc1nc(-c2cccc(-c3cccc4c3CC[C@@H]4Oc3nc(OC)c(CN4CC[C@@](C)(C(=O)O)C4)cc3C(F)(F)F)c2Cl)ccc1CN[C@H]1C[C@](C)(O)C1 [B-213] | 0.064 nM | 17 nM
15 | COc1nc(-c2cccc(-c3cccc4c3CC[C@@H]4Oc3nc(OC)c(CN[C@@H](C)C(=O)O)cc3C(F)(F)F)c2Cl)ccc1CN[C@H]1C[C@](C)(O)C1 [B-215] | 0.064 nM | 8.42 nM
16 | COc1nc(-c2cccc(-c3cc(F)cc4c3CC[C@@H]4Oc3nc(OC)c(CN4CC5(C(=O)O)CCC4CC5)cc3C(F)(F)F)c2Cl)ccc1CNC[C@@H]1CCC(=O)N1 [B-216] | 0.064 nM | 20.1 nM
17 | COc1cc(O[C@H]2CCc3c(-c4cccc(-c5ccc(CNC[C@@H]6CCC(=O)N6)c(OC)n5)c4Cl)cccc32)c(C(F)(F)F)cc1CN1CC[C@@](C)(C(=O)O)C1 [B-218] | 0.064 nM | 17.3 nM
18 | COc1cc(O[C@H]2CCc3c(-c4cccc(-c5ccc(CNC[C@@H]6CCC(=O)N6)c(OC)n5)c4Cl)cccc32)c(C(F)(F)F)cc1CNC[C@@H](O)CC(=O)O [B-222] | 0.064 nM | 13.5 nM
19 | COc1cc(O[C@H]2CCc3c(-c4cccc(-c5ccc(CNC[C@@H]6CCC(=O)N6)c(OC)n5)c4Cl)cccc32)c(C(F)(F)F)cc1CN1CCC[C@@]1(C)C(=O)O [B-223] | 0.064 nM | 18 nM
20 | COc1cc(O[C@H]2CCc3c(-c4cccc(-c5ccc(CNC[C@@H]6CCC(=O)N6)c(OC)n5)c4Cl)cccc32)c(C(F)(F)F)cc1CN1CC2CCC1C(C(=O)O)C2 (stereo partly drawn) [B-224] | 0.064 nM | 10.6 nM
21 | COc1nc(-c2cccc(-c3cccc4c3CC[C@@H]4Oc3nc(OC)c(CN4C5CCC4(C(=O)O)CC5)cc3C(F)(F)F)c2Cl)ccc1CN1CC2(CCC(=O)N2)C1 [B-227] | 0.064 nM | 3.12 nM
22 | COc1nc(-c2cccc(-c3cccc4c3CC[C@@H]4Oc3nc(OC)c(CN4CCC5CC4(C(=O)O)C5)cc3C(F)(F)F)c2Cl)ccc1CN1CC2(CCC(=O)N2)C1 [B-228] | 0.064 nM | 6.43 nM
23 | COc1nc(-c2cccc(-c3cccc4c3CC[C@@H]4Oc3nc(OC)c(CNC4(C(=O)O)CCC4)cc3C(F)(F)F)c2Cl)ccc1CNC[C@@H]1CCC(=O)N1 [B-229] | 0.064 nM | 3.14 nM

Continued, values first:

Row | IC50 (PD-1/PD-L1) | AC50 (PD-L1) | Structure (SMILES)
24 | 0.064 nM | 10.9 nM | COc1nc(-c2cccc(-c3cccc4c3CC[C@@H]4Oc3nc(OC)c(CN4C[C@H](C)C[C@H]4C(=O)O)cc3Cl)c2Cl)ccc1CNC[C@@H]1CCC(=O)N1 [B-185]
25 | 0.064 nM | 12 nM | COc1nc(O[C@H]2CCc3c(-c4cccc(-c5cc(F)c(CNC[C@@H]6CCC(=O)N6)c(OC)n5)c4Cl)cccc32)c(C(F)(F)F)cc1CN1CC[C@H](C(=O)O)C1 [B-188]
26 | 0.064 nM | 9.85 nM | COc1nc(O[C@H]2CCc3c(-c4cccc(-c5cc(F)c(CNC[C@@H]6CCC(=O)N6)c(OC)n5)c4Cl)cccc32)c(C(F)(F)F)cc1CNC1(C(=O)O)CC1 [B-189]
27 | 0.064 nM | 8.98 nM | COc1nc(O[C@H]2CCc3c(-c4cccc(-c5cc(F)c(CNC[C@@H]6CCC(=O)N6)c(OC)n5)c4Cl)cccc32)c(C(F)(F)F)cc1CN1CC2(C(=O)O)CCC1CC2 [B-190]
28 | 0.064 nM | 12.3 nM | COc1nc(O[C@H]2CCc3c(-c4cccc(-c5cc(F)c(CNC[C@@H]6CCC(=O)N6)c(OC)n5)c4Cl)cccc32)c(C(F)(F)F)cc1CN1CC[C@@H](C(=O)O)C1 [B-191]
29 | 0.064 nM | 3.76 nM | COc1cc(-c2cccc(-c3cccc4c3CC[C@@H]4Oc3nc(OC)c(CNC4(C(=O)O)CC4)cc3C(F)(F)F)c2Cl)cc(F)c1CNC[C@@H]1CCC(=O)N1 [B-193]
30 | 0.064 nM | 4.54 nM | COc1cc(-c2cccc(-c3cccc4c3CC[C@@H]4Oc3nc(OC)c(CN4CC5(C(=O)O)CCC4CC5)cc3C(F)(F)F)c2Cl)cc(F)c1CNC[C@@H]1CCC(=O)N1 [B-194]
31 | 0.064 nM | 15.3 nM | COc1nc(-c2cccc(-c3cccc4c3CC[C@@H]4Oc3nc(OC)c(CN4C[C@H]5C[C@@]5(C(=O)O)C4)cc3C(F)(F)F)c2Cl)ccc1CNC[C@@H]1CCC(=O)N1 [B-198]
32 | 0.064 nM | 20.1 nM | COc1nc(-c2cccc(-c3cccc4c3CC[C@@H]4Oc3nc(OC4CC4)c(CN4CC[C@@H](C(=O)O)C4)cc3Cl)c2Cl)ccc1CNC[C@@H]1CCC(=O)N1 [B-200]
33 | 0.064 nM | 9.7 nM | COc1nc(-c2cccc(-c3cccc4c3CC[C@@H]4Oc3nc(OC)c(CNC4(C(=O)O)CC4)cc3C(F)(F)F)c2Cl)ccc1CNC[C@@H]1CC(O)C(=O)N1 (stereo partly drawn) [B-204]
34 | 0.064 nM | 7.55 nM | COc1nc(-c2cccc(-c3cccc4c3CC[C@@H]4Oc3nc(OC)c(CNCC(=O)O)cc3C(F)(F)F)c2Cl)ccc1CN[C@]1(C)C[C@@](C)(O)C1 [B-205]
35 | 0.064 nM | 7.77 nM | COc1nc(-c2cccc(-c3cccc4c3CC[C@@H]4Oc3nc(OC)c(CNCC(=O)O)cc3C(F)(F)F)c2Cl)ccc1CNC[C@H]1C[C@](C)(O)C1 [B-206]
36 | 0.064 nM | 11.9 nM | COc1nc(-c2cccc(-c3cccc4c3CC[C@@H]4Oc3nc(OC)c(CNC4(C(=O)O)CC4)cc3C(F)(F)F)c2Cl)ccc1CNC[C@H]1C[C@](C)(O)C1 [B-207]
37 | 0.064 nM | 11.7 nM | COc1nc(-c2cccc(-c3cccc4c3CC[C@@H]4Oc3nc(OC)c(CN4CC5(C(=O)O)CCC4CC5)cc3C(F)(F)F)c2Cl)ccc1CNC[C@H]1C[C@](C)(O)C1 [B-209]
38 | 0.064 nM | 9.21 nM | CC[C@H](NCc1cc(C(F)(F)F)c(O[C@H]2CCc3c(-c4cccc(-c5ccc(CN[C@H]6C[C@](C)(O)C6)c(OC)n5)c4Cl)cccc32)nc1OC)C(=O)O [B-211]
39 | 0.064 nM | 28.9 nM | COc1nc(-c2cccc(-c3cc(F)cc4c3CC[C@@H]4Oc3nc(OC)c(CN4CC[C@@H](C(=O)O)C4)cc3C(F)(F)F)c2Cl)ccc1CNC[C@@H]1CCC(=O)N1 [B-217]
40 | 0.064 nM | 2.56 nM | COc1cc(O[C@H]2CCc3c(-c4cccc(-c5ccc(CNC[C@@H]6CCC(=O)N6)c(OC)n5)c4Cl)cccc32)c(C(F)(F)F)cc1CNC(C)(C)C(=O)O [B-219]
41 | 0.064 nM | 2.04 nM | COc1cc(O[C@H]2CCc3c(-c4cccc(-c5ccc(CNC[C@@H]6CCC(=O)N6)c(OC)n5)c4Cl)cccc32)c(C(F)(F)F)cc1CNC1(C(=O)O)CC1 [B-220]
42 | 0.064 nM | 17.5 nM | COc1cc(O[C@H]2CCc3c(-c4cccc(-c5ccc(CNC[C@@H]6CCC(=O)N6)c(OC)n5)c4Cl)cccc32)c(C(F)(F)F)cc1CNCC(C)(C)C(=O)O [B-221]
43 | 0.064 nM | 5.32 nM | COc1nc(O[C@H]2CCc3c(-c4cccc(-c5cnc(CNC[C@@H]6CCC(=O)N6)c(OC)n5)c4Cl)cccc32)c(C(F)(F)F)cc1CNC1(C(=O)O)CC1 [B-225]
44 | 0.064 nM | 5.33 nM | COc1nc(-c2cccc(-c3cccc4c3CC[C@@H]4Oc3nc(OC)c(CN4CC5CCC4(C(=O)O)CC5)cc3C(F)(F)F)c2Cl)ccc1CN1CC2(CCC(=O)N2)C1 [B-226]
45 | 0.064 nM | 27.5 nM | COc1nc(-c2cccc(-c3cccc4c3CC[C@@H]4Oc3nc(OC)c(CN[C@]4(C(=O)O)C[C@H](F)C4)cc3C(F)(F)F)c2Cl)ccc1CNC[C@@H]1CCC(=O)N1 [B-230]
